Earlier results, collected in US20030004177A1, “Abuse-resistant opioid dosage form” (Endo Pharmaceuticals, Inc., priority 2001, published 2003).
Where two headings read alike, the source gives them in different places.

Tests used:
opioid effect = conditions: injection or intranasal administration

C=CCN1CC[C@]23c4c5ccc(O)c4O[C@H]2C(=O)CC[C@@]3(O)[C@H]1C5 [naloxone]
amount needed to antagonize the opioid effect, to induce abstinence in dependent individuals, and to prevent abuse (opioid effect): 0.2 to 0.4 mg
bioavailability (administered orally): very low
bioavailability (administered parenterally): high
